{"source": "paper PMC4892293", "about": "(Drug Design, Development and Therapy, 2016)", "molecular_target": "T1, human recombinant PPARγ (Homo sapiens, UniProt P37231)", "T1 sequence (P37231 1-505)": "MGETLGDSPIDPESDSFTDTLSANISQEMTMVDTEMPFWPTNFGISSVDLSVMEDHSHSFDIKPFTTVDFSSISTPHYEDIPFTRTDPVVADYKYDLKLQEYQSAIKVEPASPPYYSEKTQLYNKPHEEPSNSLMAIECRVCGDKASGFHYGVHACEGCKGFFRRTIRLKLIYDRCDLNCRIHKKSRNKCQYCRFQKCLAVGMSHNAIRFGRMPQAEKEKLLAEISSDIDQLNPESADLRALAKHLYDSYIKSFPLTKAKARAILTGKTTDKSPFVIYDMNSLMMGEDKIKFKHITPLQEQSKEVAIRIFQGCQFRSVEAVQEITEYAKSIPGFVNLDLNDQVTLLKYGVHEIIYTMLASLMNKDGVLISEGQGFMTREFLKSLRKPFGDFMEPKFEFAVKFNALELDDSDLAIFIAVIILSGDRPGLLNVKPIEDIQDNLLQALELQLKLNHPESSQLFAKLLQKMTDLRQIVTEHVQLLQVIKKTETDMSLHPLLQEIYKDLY", "test": "FP-based PPARγ ligand screening assay", "format": "binding", "settings": "concentration of 10.0 μM; Figure 2"}
{"substance": "4-((5-(4-Chlorophenyl)-4-methylthiazol-2-yl)amino)-4-oxobutanoic acid [Compound 4f]", "values": [{"measurement": "agonistic activity in primary FP screening", "result": "unable to promote agonistic activity"}]}
